Laboratory results from patent publication US20250009942A1, “BIODEGRADABLE PIEZOELECTRIC NANOFIBERS” (University of Connecticut, priority 2022, published 2025).

Details: corona discharge, 20 kV
Source text: Ionized air particles around the needle were accelerated and bombard towards the sample surface, causing electric field across the substrate. […] Later, the samples (n=5 for each group) were positioned on an anti-static mat (Bertech, 1059-2X3BKT) to increase the accuracy of the measurement. The voltmeter was grounded and was held 5 mm from the sample surface.
The particles 130, 190 were placed on a ground plate and a high voltage (20 kV) was applied between the plate and the top positive nozzle.

## NCC(=O)O [glycine particles, glycine]
  charge accumulation rate and surface charge density after poling: considerably higher than those before poling
